Test results from patent US8658363B2, “Cell, method, and assay kit for measuring level of aryl hydrocarbon receptor transcriptional activation” (priority 2009, dated 2014).

Target: T1, Ah receptor (Rattus norvegicus, UniProt P41738)
T1 construct: pcDNA4/V5-His B was linked with the coding region of the rat Ah receptor gene; expressed in transfected cells
T1 sequence (P41738 10-853): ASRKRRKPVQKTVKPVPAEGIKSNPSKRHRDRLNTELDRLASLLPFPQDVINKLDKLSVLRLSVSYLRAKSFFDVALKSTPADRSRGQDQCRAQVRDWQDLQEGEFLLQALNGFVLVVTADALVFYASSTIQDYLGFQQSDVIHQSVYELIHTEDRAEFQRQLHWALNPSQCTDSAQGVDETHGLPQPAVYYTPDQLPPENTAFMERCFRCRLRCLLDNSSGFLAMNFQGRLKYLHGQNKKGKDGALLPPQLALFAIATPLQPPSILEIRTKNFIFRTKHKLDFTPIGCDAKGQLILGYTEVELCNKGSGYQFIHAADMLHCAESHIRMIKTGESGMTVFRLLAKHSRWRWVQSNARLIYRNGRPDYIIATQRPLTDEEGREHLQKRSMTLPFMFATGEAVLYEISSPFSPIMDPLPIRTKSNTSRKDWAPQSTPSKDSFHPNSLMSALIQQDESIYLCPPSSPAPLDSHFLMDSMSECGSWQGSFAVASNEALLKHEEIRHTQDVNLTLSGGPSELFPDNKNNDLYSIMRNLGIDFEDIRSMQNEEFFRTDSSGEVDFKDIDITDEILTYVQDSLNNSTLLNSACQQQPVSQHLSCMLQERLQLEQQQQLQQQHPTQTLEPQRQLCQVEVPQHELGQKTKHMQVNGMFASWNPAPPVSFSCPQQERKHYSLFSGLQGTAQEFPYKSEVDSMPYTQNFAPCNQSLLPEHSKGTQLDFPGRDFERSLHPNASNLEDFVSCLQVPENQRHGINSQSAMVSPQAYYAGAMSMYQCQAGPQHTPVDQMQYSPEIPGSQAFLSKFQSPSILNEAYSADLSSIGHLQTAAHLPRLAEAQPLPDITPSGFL
Test: Ah receptor transcriptional activation, luciferase reporter in recombinant N2a-SY1 cells
Type: cell-based
Conditions: for N2a-SY1 (magnification of activation) [signal-to-noise ratio] / N2a-SY1 (LUC) compensated value: luciferase luminescence RLU divided by absorbance of β-galactosidase: 24 hours, N2a-SY1 cells
Method: The recombinant cells (N2a-SY1) produced in Example 4 were seeded on a 24-well plate with about 80,000 cells per well and then cultured in a […] medium of 10% serum for several hours to overnight.
Next, the medium of the recombinant cell cultured in the above manner was aspirated to remove it, and DF 1:1 mediums of 10% serum which contained a 2,3,7,8-TCDD in concentrations of 0, 0.1, 1, 10, 100 and 1000 pg/mL, respectively were each dispensed in each well with 1 mL per well to culture cells. The culturing of cells was continued, the medium was removed after 24 hours and the cells were washed once with PBS 1 mL per well. Then, 200 μL per well of a PicaGene Cell Culture Lysis Reagent Luβ (manufactured by Toyo B-Net Co., Ltd.) diluted five times was added to each well, which was then allowed to stand at room temperature for 10 minutes or more to dissolve, thereby obtaining a cell extract. The obtained cell extract was frozen-stored in a freezing chamber, this frozen-stored plate was taken out of the freezing chamber, and the cell extract was fused at room temperature. 10 μL of the fused cell extract was transferred to a black 96-well plate. Then, 100 μL per well of a PicaGene (trademark) LT210 luminescence substrate solution was dispensed in each well of the plate and mixed and then, the plate was set to a Mithras LB940 Microplate Reader (manufactured by Berthold Japan K.K.) to measure a luminescence amount continuously. Separately, 10 μL of the above cell extract was transferred to a transparent 96-well plate. 150 μL of a β-galactosidase substrate solution (ONPG substrate solution) was added to each well of the plate, which was incubated at room temperature for 5 minutes, and then, 50 μL of a reaction stop solution (aqueous […] sodium carbonate solution) was added to each well. Then, the plate was set to a micro-plate reader to measure absorbance of each well at 405 nm. Using a standard curve, the absorbance was converted into the amount of β-galactosidase (ng) in the protein extract. The results are shown by a bar graph in FIG. 4, and also in Table 1 showing each value (in the table, each value is a compensated value calculated by dividing the luminescence relative light units (RLU) of luciferase by the absorbance of β-galactosidase and bB/A means the magnification of activation [signal-to-noise ratio]).
The stable recombinant cells (N2a-SY1) produced in Example 4 were seeded on a 24-well plate with about 80,000 cells per well and cultured in a DF 1:1 medium of 10% serum for several hours to overnight.
Next, the medium of the recombinant cell cultured in the above manner was aspirated to remove it, and DF 1:1 mediums of 10% serum which contained PCB126 at concentrations of 0, 0.2, 2, 20, 200, 2000, and 20000 pg/mL respectively were dispensed in each well with 1 mL per well to culture cells. The culturing of cells was continued, the medium was removed after 24 hours and the cells were washed once with PBS 1 mL per well. Then, 200 μL per well of a PicaGene Cell Culture Lysis Reagent Luβ (manufactured by Toyo B-Net Co., Ltd.) diluted five times was added to each well, which was then allowed to stand at room temperature for 10 minutes or more to dissolve, thereby obtaining a cell extract. The obtained cell extract was frozen-stored in a freezing chamber, this frozen-stored plate was taken out of the freezing chamber, and the cell extract was fused at room temperature. 10 μL of the fused cell extract was transferred to a black 96-well plate. Then, 100 μL per well of a PicaGene (trademark) LT210 luminescence substrate solution was dispensed in each well of the plate and mixed and then, the plate was set to a Mithras LB940 Microplate Reader (manufactured by Berthold Japan K.K.) to measure a luminescence amount continuously. Separately, 10 μL of the above cell extract was transferred to a transparent 96-well plate. […]

Clc1cc2c(cc1Cl)Oc1cc(Cl)c(Cl)cc1O2 [2,3,7,8-TCDD] was tested, and the “N2a-SY1 (magnification of activation) [signal-to-noise ratio]” value (“N2a-SY1 … [signal-to-noise ratio]” for short) (2,3,7,8-TCDD 0.01 pg/ml vs 0 pg/ml) was 1, the “N2a-SY1 (LUC) compensated value: luciferase luminescence RLU divided by absorbance of β-galactosidase” value (2,3,7,8-TCDD 0.01 pg/ml) was 1187.8 and the “N2a-SY1 … [signal-to-noise ratio]” value (2,3,7,8-TCDD 0.1 pg/ml vs 0 pg/ml) was 1.24. The “N2a-SY1 (LUC) compensated value: luciferase luminescence RLU divided by absorbance of β-galactosidase” value (2,3,7,8-TCDD 0.1 pg/ml) was 1451.5, the “N2a-SY1 … [signal-to-noise ratio]” value (2,3,7,8-TCDD 1 pg/ml vs 0 pg/ml) was 1.34 and the “N2a-SY1 (LUC) compensated value: luciferase luminescence RLU divided by absorbance of β-galactosidase” value (2,3,7,8-TCDD 1 pg/ml) was 1577.6. The “N2a-SY1 … [signal-to-noise ratio]” value (2,3,7,8-TCDD 10 pg/ml vs 0 pg/ml) was 3.43, the “N2a-SY1 (LUC) compensated value: luciferase luminescence RLU divided by absorbance of β-galactosidase” value (2,3,7,8-TCDD 10 pg/ml) was 4029.7 and the “N2a-SY1 … [signal-to-noise ratio]” value (2,3,7,8-TCDD 100 pg/ml vs 0 pg/ml) was 4.88. The “N2a-SY1 (LUC) compensated value: luciferase luminescence RLU divided by absorbance of β-galactosidase” value (2,3,7,8-TCDD 100 pg/ml) was 5718.5, the “N2a-SY1 … [signal-to-noise ratio]” value (2,3,7,8-TCDD 1000 pg/ml vs 0 pg/ml) was 5.22 and the “N2a-SY1 (LUC) compensated value: luciferase luminescence RLU divided by absorbance of β-galactosidase” value (2,3,7,8-TCDD 1000 pg/ml) was 6132.5. The “concentration in a sample that may be detected (Ah receptor transcriptional activation)” value (recombinant cell of the embodiment) was 0.1 pg/mL.
With Clc1ccc(-c2cc(Cl)c(Cl)c(Cl)c2)cc1Cl [PCB126] the “N2a-SY1 … [signal-to-noise ratio]” value (PCB126 0.2 pg/ml vs 0 pg/ml) was 0.91, the “N2a-SY1 (LUC) compensated value: luciferase luminescence RLU divided by absorbance of β-galactosidase” value (PCB126 0.2 pg/ml) was 1882.6 and the “N2a-SY1 … [signal-to-noise ratio]” value (PCB126 2 pg/ml vs 0 pg/ml) was 1.15. The “N2a-SY1 (LUC) compensated value: luciferase luminescence RLU divided by absorbance of β-galactosidase” value (PCB126 2 pg/ml) was 2388, the “N2a-SY1 … [signal-to-noise ratio]” value (PCB126 20 pg/ml vs 0 pg/ml) was 1.92 and the “N2a-SY1 (LUC) compensated value: luciferase luminescence RLU divided by absorbance of β-galactosidase” value (PCB126 20 pg/ml) was 3991. For the same compound, the “N2a-SY1 … [signal-to-noise ratio]” value (PCB126 200 pg/ml vs 0 pg/ml) was 2.74, the “N2a-SY1 (LUC) compensated value: luciferase luminescence RLU divided by absorbance of β-galactosidase” value (PCB126 200 pg/ml) was 5685.8 and the “N2a-SY1 … [signal-to-noise ratio]” value (PCB126 2000 pg/ml vs 0 pg/ml) was 3.08. For the same compound, the “N2a-SY1 (LUC) compensated value: luciferase luminescence RLU divided by absorbance of β-galactosidase” value (PCB126 2000 pg/ml) was 6401.6, the “N2a-SY1 … [signal-to-noise ratio]” value (PCB126 20000 pg/ml vs 0 pg/ml) was 3.02 and the “N2a-SY1 (LUC) compensated value: luciferase luminescence RLU divided by absorbance of β-galactosidase” value (PCB126 20000 pg/ml) was 6264.8. For the same compound, the “N2a-SY1 … [signal-to-noise ratio]” value (PCB126 200000 pg/ml vs 0 pg/ml) was 3.02 and the “N2a-SY1 (LUC) compensated value: luciferase luminescence RLU divided by absorbance of β-galactosidase” value (PCB126 200000 pg/ml) was 6268.9.
